These are literature values, as cited in patent publication US20140235496A1, “STIMULUS-ELICITED GENOMIC PROFILE MARKERS OF A NEURODEGENERATIVE CONDITION” (Blanchette Rockefeller Neurosciences Institute, priority 2011, published 2014).

For the data set, the system named is PKC. The note with it: shown to be effective; see US 2010/0022645.

For `CCC1CC1CC1CC1CC1CC1CC1CC1CC1CC1CC1CC1CCC(=O)O` (stereo not shown) [DHA-CP6], the effective concentration is 10 nM.
